Literature values, collected in patent US20020164314A1, “Ovarian hormone induced neural stem cell increase” (Neurostasis, Inc., priority 2001, published 2002).

Experiments:
[1] = system: proliferating cells in the dentate gyrus
[2] = system: development of female characteristics in animals
[3] = corticosterone, Alonso 2000, adult rats

For Estrogen, the “number of new neurons in the dentate gyrus” value ([1]; Tanapat et al. 1999, adult female) is listed as “transient increase”, the “proliferation in the dentate gyrus” value ([1]; Tanapat et al. 1999, adult female rat) is listed as “stimulate proliferation” and the “mitotic activity in the subventricular zone” value (SVZ proliferating cells; Tanapat et al. 1999) is listed as “no mitotic activity”.
For `C[C@]12C[C@H](O)[C@H]3[C@@H](CCC4=CC(=O)CC[C@@]43C)[C@@H]1CC[C@@H]2C(=O)CO` [corticosterone], the “cell proliferation in the dentate gyrus” value [1, 3] is listed as “dramatically decreases” and the “effect on the SVZ proliferating cells” value (SVZ proliferating cells; [3]) is listed as “no effect”.
For `C[C@]12CC[C@@H]3c4ccc(O)cc4CC[C@H]3[C@@H]1CC[C@@H]2O` [β-estradiol], the “estrogenic potency relative to estriol” value ([2]; ratio versus estriol) is given as 80 times and the “estrogenic potency relative to estrone” value ([2]; ratio versus estrone) is given as 12 times.
